Laboratory results as given in patent publication US20210361600A1, “METHODS FOR INDUCING CHONDROGENESIS” (THE SCRIPPS RESEARCH INSTITUTE, priority 2017, published 2021).
“Also recorded” adds a separate entry of the source.

Legend:
[1] = Intra-articular acute toxicity study in Crl:CD(SD) rat (toxicokinetics); conditions: for Tlast: male rats, median
[2] = Intravenous acute toxicity study in Crl:CD(SD) rat (toxicokinetics); type: in vivo; conditions: for AUC(0-t) / Cmax / half-life: Crl:CD(SD), rat, plasma; for Tlast: median
Procedure: For toxicokinetic evaluation, an additional 3 rats/sex/group were added for the 1 or 2.4 mg/kg dose groups. Toxicokinetic parameters were determined, where feasible, by non-compartmental analysis.

[3] = in vivo; conditions: male, beagle, dog, 70 μg/knee/week
[4] = in vivo; conditions: Crl:CD(SD), rat
[5] = in vivo; conditions: dog, iv; for AUC(0-t): AUC0-t
[6] = system: Rat Medial Meniscal Tear Model; experiment: Dose range study of compound A in a rat medial meniscal tear model; type: in vivo, Lewis rats
Procedure: The vehicle was prepared separately and then added to aliquots of compound A powder, after which the mixture was vortexed and becomes a clear solution. Dosing solutions were prepared for doses ranging from 30 μM to 0.3 μM. Dosing volume was set to 30 μL/knee. Dosing solutions were prepared fresh for each dose. Dosing solutions were verified at the end of the study. The positive control compound FGF-18 stock was reconstituted in 5 mM Tris, pH 8.0 as per manufacturer's instructions. The FGF-18 stock was further diluted in saline to a final concentration of 0.167 mg/mL. Fresh dilutions were prepared twice a week at the time of injection.
Fourteen-week-old male Lewis rats (Charles River, Kingston, N.Y.) were in the weight range of 285-327 g.
Rats were sorted based on body weight into 8 study groups of 15 rats. They were surgerized and enrolled in a staggered fashion across one week (enroll 20 animals per day for 6 days). Animals were anesthetized with a ketamine/xylazine cocktail (50 mg/kg Ketaved—Henry Schein, and 5 mg/kg Xyalzine AniSed, respectively) by intraperitoneal injection, administered appropriate analgesics (Flunixin, 5 mg/kg subcutaneous injection), and the surgical site shaved and disinfected. A small incision was made on the medial right hind knee to expose the collateral ligament. The collateral ligament was transected and the joint capsule opened sufficiently to expose the medial meniscus. The meniscus was transected completely, then the skin incision was closed, and pressure applied to the wound to prevent hematoma development. Animals were allowed to recover on a heated blanket and were returned to their home cages. Sham procedures were carried out in a similar fashion except the medial meniscus was not cut. All surgical procedures were performed aseptically and all procedures were approved by the IACUC. Animals were monitored daily for the following week for postoperative care prior to dosing. Any animals with atypical healing (bruising/hematoma) were removed from the study and replaced with spare animals. Animals were enrolled into the following groups: […]

[7] = system: FLNA FC-1 fragment; experiment: In vitro FLNA binding (competition with biotin-KGN-azide probe); conditions: 25 μM compound A, 0.5 μM BKA, FC-1 fragment 10 μg/mL, 1 hr
From the text: The biological mechanism of kartogenin (KGN) was elucidated through synthesis of a biotin-kartogenin-azide (BKA) affinity probe which was used as a tool to identify the subsequent interaction with FLNA.

[8] = dose increment of 5.7 fold (from 2.1 to 12 μg)
[9] = male, Crl:CD(SD), rat, plasma, 12 ug
[10] = female rats, single IV 1 mg/kg, mean
[11] = female rats, single IV 2.4 mg/kg, mean
[12] = male rats, single IV 1 mg/kg, mean
[13] = male rats, single IV 2.4 mg/kg, mean

With `COCCc1ccc(NC(=O)c2ccccc2NS(C)(=O)=O)cc1` [Compound A, N-(4-(2-methoxyethyl)phenyl)-2-(methylsulfonamido)benzamide] the “increase in mean AUC0-t” value [1, 8] was 2 fold, the “increase in mean Cmax” value [1, 8] was 2 fold and the Tlast ([1]; single IA dose 2.1 μg/knee, plasma) was 2.00 h. The Tlast ([1]; single IA dose 12 μg/knee, plasma) was 2.00 h, the AUC(0-t) ([1]; male, Crl:CD(SD), rat, plasma, 2.1 ug) was 12.1 ng·h/mL and the AUC(0-t) [1, 9] was 23.9 ng·h/mL. It also gave a Cmax [1, 9] of 27.8 ng/mL, an AUC(0-t) [2, 10] of 2900 ng·h/mL and a Cmax [2, 10] of 9190 ng/mL. For the same compound, the half-life [2, 10] was 28.8 min, the Cmax [2, 11] was 9020 ng/mL and the half-life [2, 11] was 31.8 min. For the same compound, the AUC(0-t) ([2]; female rats, single IV 2.4 mg/kg, mean, t = 4 hours) was 5690 ng·h/mL, the AUC(0-t) [2, 12] was 2500 ng·h/mL and the Cmax [2, 12] was 11200 ng/mL. It also gave a half-life [2, 12] of 22.2 min, an AUC(0-t) [2, 13] of 4510 ng·h/mL and a Cmax [2, 13] of 9430 ng/mL. For the same compound, the half-life [2, 13] was 24 min, the half-life ([2]; both sexes, single IV administration, range over groups) was 18 to 36 min and the Tlast ([2]; female rats, single IV 1 mg/kg) was 2 h. For the same compound, the Tlast ([2]; female rats, single IV 2.4 mg/kg) was 4 h, the “mean AUC0-t, higher dose compared to 1 mg/kg” value ([2]; females, single IV) was about 2.0 fold and the Tlast ([2]; male rats, single IV 1 mg/kg) was 2 h. For the same compound, the Tlast ([2]; male rats, single IV 2.4 mg/kg) was 2 h, the “mean AUC0-t, higher dose compared to 1 mg/kg” value ([2]; males, single IV) was “approximately 1.8 fold” and the “gender differences in systemic exposure (Cmax and AUC0-t)” value ([2]; single IV, either dosing regimen) was “no notable gender differences”. For the same compound, the AUC(0-t) [3] was 13.8 ng·h/mL, the “time up to which quantifiable in the plasma of all animals” value ([4]; both) was “at least 2 hours” and the AUC(0-t) ([4]; female, 70 ug/kg) was 20.3 ng·h/mL. The Cmax ([4]; female, 70 ug/kg) was 11.6 ng/mL, the AUC(0-t) ([4]; female, 70 ug/kg, AUC0-t) was 18.5 ng·h/mL and the Cmax ([4]; female, 70 ug/kg, Cmax) was 19.5 ng/mL. It also gave an AUC(0-t) ([4]; female, 140 ug/kg) of 52.3 ng·h/mL, a Cmax ([4]; female, 140 ug/kg) of 34.5 ng/mL and an AUC(0-t) ([4]; female, 140 ug/kg, AUC0-t) of 43.5 ng·h/mL. For the same compound, the Cmax ([4]; female, 140 ug/kg, Cmax) was 42.3 ng/mL, the AUC(0-t) ([4]; female, 200 ug/kg) was 64.9 ng·h/mL and the AUC(0-t) ([4]; female, 200 ug/kg, AUC0-t) was 39.3 ng·h/mL. The Cmax ([4]; female, 200 ug/kg, Cmax) was 59.8 ng/mL, the AUC(0-t) ([4]; male, 70 ug/kg) was 8.14 ng·h/mL and the Cmax ([4]; male, 70 ug/kg) was 8.41 ng/mL. It also gave an AUC(0-t) ([4]; male, 70 ug/kg, AUC0-t) of 8.33 ng·h/mL, a Cmax ([4]; male, 70 ug/kg, Cmax) of 8.24 ng/mL and an AUC(0-t) ([4]; male, 140 ug/kg) of 18.4 ng·h/mL. The Cmax ([4]; male, 140 ug/kg) was 18.6 ng/mL, the AUC(0-t) ([4]; male, 140 ug/kg, AUC0-t) was 15.4 ng·h/mL and the Cmax ([4]; male, 140 ug/kg, Cmax) was 23.5 ng/mL. For the same compound, the AUC(0-t) ([4]; male, 200 ug/kg) was 35.5 ng·h/mL, the AUC(0-t) ([4]; male, 200 ug/kg, AUC0-t) was 22.9 ng·h/mL and the Cmax ([4]; male, 200 ug/kg, Cmax) was 33.9 ng/mL. For the same compound, the half-life ([5]; both, beagle) was 38.4 to 55.8 min, the AUC(0-t) ([5]; female, Beagle, 0.125 mg/kg) was 131 ng·h/mL and the Cmax ([5]; female, Beagle, 0.125 mg/kg) was 181 ng/mL. The AUC(0-t) ([5]; female, Beagle, 0.6 mg/kg) was 1230 ng·h/mL, the Cmax ([5]; female, Beagle, 0.6 mg/kg) was 1330 ng/mL and the AUC(0-t) ([5]; female, Beagle, 1.25 mg/kg) was 2150 ng·h/mL. It also gave a Cmax ([5]; female, Beagle, 1.25 mg/kg) of 2460 ng/mL, a Vd ([5]; female, beagle) of 0.534 to 0.855 L/kg and a clearance ([5]; female, beagle) of 8.2 to 16.4 mL/min/kg. It also gave an AUC(0-t) ([5]; female, beagle, 0.125 mg/kg) of 178 ng·h/mL, an AUC(0-t) ([5]; female, beagle, 0.6 mg/kg) of 1200 ng·h/mL and a Vd ([5]; male, beagle) of 0.44 to 0.692 L/kg. For the same compound, the clearance ([5]; male, beagle) was 7.25 to 11.4 mL/min/kg, the AUC(0-t) ([5]; male, beagle, 0.125 mg/kg) was 181 ng·h/mL and the Cmax ([5]; male, beagle, 0.125 mg/kg) was 308 ng/mL. It also gave an AUC(0-t) ([5]; male, beagle, 0.6 mg/kg) of 1190 ng·h/mL, a Cmax ([5]; male, beagle, 0.6 mg/kg) of 2100 ng/mL and an AUC(0-t) ([5]; male, beagle, 1.25 mg/kg) of 2600 ng·h/mL. The Cmax ([5]; male, beagle, 1.25 mg/kg) was 2580 ng/mL, the “total joint scores without the femur” value ([6]; 30 μM (0.315 μg/knee) IA once every other week, vs vehicle) was “significantly improved; also recorded: significant improvement” and the “degree of improvement of total joint score compared with positive control” value ([6]; 30 μM dose, FGF-18 5 μg/injection twice a week) was “on par with FGF-18”. For the same compound, the adverse effects ([6]; IA once every other week, any of the doses tested (30, 10, 3, 1, 0.3 μM)) was “no adverse effects” and the “ability of the biotin-KGN-azide probe to bind to the FC-1 fragment of FLNA” value [7] was “inhibited”.
